From PubChem BioAssay AID463229 (Broad Institute, 2010)
Values joined by “and” are separate entries in the source; they are usually repeats but may differ in a detail not shown here. Equal values may be shown once.

Each compound was assayed on INS-1E rat beta cells, no cytokines, CellTiter-Glo ATP, 48 h (assay: ATP level change in INS-1E without cytokines, dose response, counter-screen for beta-cell apoptosis protection project, INS-1E rat cells, ATP luminescence, cherry pick (AID 463229)).

Point of comparison: `Cc1ccc(S(=O)(=O)NCc2ccncc2)c(C)c1C`, AC50 3.83 µM. Against it:
- Cc1nn(C)c(C)c1CN(C)S(=O)(=O)c1ccc2ccccc2c1 — within 1.5-fold, 3.02 µM
- CCCCS(=O)(=O)/C=C\C=C/S(=O)(=O)CCCC — within 1.5-fold, 5.48 µM
- O=S1(=O)C=C(Sc2nnc(-c3ccccc3)o2)c2ccccc21 — 2.1-fold higher, 7.96 µM
- COc1ccc(C2c3ccc4ccccc4c3Oc3ncn(CCCN(C)C)c(=N)c32)cc1 (centres undefined) — 2.1-fold higher, 8.02 µM
- CC(C)Nc1ccc(Nc2ccnc3cc4ccccc4cc23)cc1 — 1.9-fold higher, 7.2 µM
- COc1ccc(-c2nc3ccc(C)cn3c2NCc2ccccc2)cc1SC1CCCCC1 — 1.6-fold lower, 2.34 µM
- O=C(N/N=C/c1cc([N+](=O)[O-])ccc1O)c1cc(-c2ccccc2)nc2ccccc12 — 1.5-fold higher, 5.78 µM
- CN(C)c1cc[n+](Cc2c(Cl)cccc2Cl)cc1 — 1.6-fold higher, 6.3 µM
- O=C(COc1ccc2ccccc2c1)N1CCN(Cc2c[nH]c3ccccc23)CC1 — within 1.5-fold, 2.8 µM
- COc1ccc(-c2sc3ccccc3c2-c2ccc(OCCN(C)C)cc2)cc1 — 1.9-fold higher, 7.12 µM
- CC(C)(C)c1cc[n+](C2=C([O-])c3ccccc3C(=O)/C2=N\S(=O)(=O)c2cccs2)cc1 — 1.9-fold higher, 7.44 µM
- CCc1ccc(-c2cc(C(F)(F)F)n3nc(C(=O)Nc4cnn(Cc5ccc(C)cc5)c4)cc3n2)s1 — 2-fold higher, 7.83 µM
- Nc1cc2c3c(cccc3c1)C(=O)N(CCN1CCCC1)C2=O — 3.3-fold higher, 12.7 µM
- Cc1cccc(CSC(Nc2ccc(F)cc2)=C(C#N)C#N)c1 — 1.5-fold higher, 5.85 µM
- O=C(CNc1ccc(F)cc1)N/N=C/c1c(O)ccc2ccccc12 — 5.1-fold higher, 19.5 µM
- O=C(c1cnc(N2CCN(c3ccccn3)CC2)c2ccccc12)N1CCN(c2cccc(Cl)c2)CC1 — 2-fold higher, 7.59 µM
- CCN(CC)CCOc1ccc2c(c1)C(=NO)c1cc(OCCN(CC)CC)ccc1-2 — 3.7-fold higher, 14.1 µM
- CC(CC(=O)N1CCN(c2cccc(Cl)c2)CC1)S(=O)(=O)c1ccc2c(c1)NC(=O)CO2 (centres undefined) — 1.9-fold higher, 7.1 µM
- O=C1N/C(=N\N=C\c2cccnc2)SC1Cc1ccc(SC(F)F)cc1 (centres undefined) — 2.5-fold higher, 9.68 µM
- O=C(N/N=C/c1cc([N+](=O)[O-])ccc1O)c1cccc2ccccc12 — 2.6-fold higher, 9.87 µM
- CNC[C@@H](CC1CCCCC1)NC[C@H](CC(C)C)NCCc1cccc(C(F)(F)F)c1 — within 1.5-fold, 4.4 µM
- O=C(Nc1ccc(F)cc1)Nc1cc(OCC(F)(F)F)cc(OCC(F)(F)F)c1 — 1.7-fold lower, 2.25 µM
- Cc1cc(C)nc(N/N=C2/CCCC/C2=C\c2ccccc2)n1 — within 1.5-fold, 3.72 µM
- CCN(CC)S(=O)(=O)c1cccc(NC(=O)CNc2cccc(S(=O)(=O)N3CCCC3)c2)c1 — 1.6-fold higher, 6.2 µM
- Cc1ccc(/C=C/C(=O)c2ccc([N+](=O)[O-])o2)cc1 — 1.9-fold higher, 7.11 µM
- CCCCC(=O)NC(c1ccccc1OC)c1ccc2cccnc2c1O (centres undefined) — 1.8-fold lower, 2.13 µM
- CC(C)(C)c1ccc(OCc2ccc(C(=O)N/N=C/c3ccc(O)c(O)c3)cc2)cc1 — 2.2-fold higher, 8.35 µM
- N=c1c2c(n(Cc3ccc(Cl)cc3Cl)c3c1CCC3)CCCC2 — within 1.5-fold, 3.99 µM
- C=CCNC(=S)N/N=C(\C)c1ccccn1 — 3.1-fold lower, 1.22 µM
- COc1cc(NC(=O)c2[nH]cnc2C(N)=O)cc(C(=O)Nc2cccc(C(F)(F)F)c2)c1 — within 1.5-fold, 5.21 µM
- Cc1ccc(-n2cccc2C(=S)N=P(N(C)C)(N(C)C)N(C)C)cc1 — 1.9-fold higher, 7.11 µM
- COc1cc(C(=O)Oc2c(CN3CCOCC3)cc(Cl)c3cccnc23)cc(OC)c1OC — 3.5-fold higher, 13.3 µM
- O=C(NCc1cccnc1)/C(=C\c1ccc(-c2ccc(Cl)c(Cl)c2)o1)S(=O)(=O)c1ccccc1 — within 1.5-fold, 4.62 µM
- CC(=O)NC(c1cccs1)c1cc([N+](=O)[O-])c2cccnc2c1O (centres undefined) — 2.8-fold higher, 10.9 µM
- CCCC(=O)NC(c1ccc(OC)c(OC)c1)c1cc(Cl)c2cccnc2c1O (centres undefined) — 2-fold higher, 7.47 µM
- Cc1ccccc1C(=O)Nc1cccc(C(=O)N/N=C/c2cc(Cl)cc([N+](=O)[O-])c2O)c1 — 3.5-fold higher, 13.3 µM
- c1ccc(N2CCN(c3nc(-c4ccccn4)nc4ccccc34)CC2)cc1 — 3.9-fold higher, 14.9 µM
- CC(C)(C)c1ccc(-n2ncc3c2CCCC3NC(=O)C2(C(N)=O)CC2)cc1 (centres undefined) — 1.8-fold higher, 6.85 µM
- COc1cc(NC(C)CCCN)c2ncccc2c1 (centres undefined) — 3.6-fold higher, 13.8 µM
- CN1C2CCC1/C(=C/c1ccccn1)C(=O)/C2=C\c1ccccn1 — 1.8-fold lower, 2.11 µM
- Cn1ncc2c(N3CCN(c4ccc(Cl)c(Cl)c4)CC3)ncnc21 — within 1.5-fold, 3.37 µM
- O=C(Nc1nc(-c2ccccn2)cs1)c1cc(Cl)ccc1[N+](=O)[O-] — within 1.5-fold, 4.6 µM
- COc1ccc(-c2c[n+]3c(n2-c2ccccc2)CCCCC3)cc1 — 1.6-fold lower, 2.35 µM
- COc1ccc2c(c1)[nH]c1c(N3CCN(Cc4ccc5c(c4)OCO5)CC3)ncnc12 — within 1.5-fold, 3.45 µM
- C/C(=N\NC(=O)c1cc(-c2cccnc2)nc2ccccc12)c1ccccc1O — within 1.5-fold, 5.74 µM
- COc1cc(/C=C(/C(=O)c2cccs2)c2nc3ccccc3[nH]2)ccc1O — 3.4-fold higher, 12.9 µM
- COc1ccc(NC(=O)/C(Cl)=C(/Cl)S(=O)Cc2ccccc2)cn1 (centres undefined) — 1.9-fold lower, 2.05 µM
- COc1cc(NC(=O)c2ccc([N+](=O)[O-])o2)ccc1NC(=O)c1cccs1 — 4-fold higher, 15.2 µM
- O=C(N/N=C/c1ccccc1O)c1cccc(C(F)(F)F)c1 — 1.9-fold higher, 7.18 µM
- CCCC(C)C(=O)Nc1nc(C)c(-c2csc(Nc3ccc(Cl)cc3)n2)s1 (centres undefined) — within 1.5-fold, 3.71 µM
- COc1ccc(NS(=O)(=O)c2cccc(NC(=O)c3ccc(S(=O)(=O)N4CCCCCC4)cc3)c2)cc1 — within 1.5-fold, 4.24 µM
- CCCCSc1ccc(NC(=O)c2cccnc2)cc1 — 3.8-fold higher, 14.7 µM

`NC(=NCCCCCCN=C(N)/N=C(\N)Nc1ccc(Cl)cc1)/N=C(\N)Nc1ccc(Cl)cc1` was tested, and the AC50 was 5 µM and 5.71 µM.
